# Assays:
# [1] = system: MDA-MB-468 cells, persister genes; test: scRNA-seq expression changes induced by EZH2i-1 in the absence of chemotherapy; type: cell-based, human
# Method: Cell lines, culture conditions and drug treatments. MDA-MB-468 cells were cultured in DMEM (Gibco-BRL, Ref: 11966025), supplemented with 10% heat-inactivated fetal calf serum (Gibco-BRL, Ref: 10270-106). HCC38 and BT20 cell lines were cultured in RPMI 1640 (Gibco-BRL, Ref: 11875085), supplemented with 10% heat-inactivated fetal calf serum. […] Cells were treated with 5 μM of 5-FU (Sigma, Ref: F6627) alone or in combination with KDM6A/Bi or EZH2i for indicated days. For EZH2i, cells were pretreated with UNC 1999, UNC 2400 or GSK 126 for 10 days before the addition of 5-FU for an additional 21 days (FIG. 4 and Extended FIG. 8).
# Single-cell RNA-seq. For each single cell suspension (DMSO-DO- #1, 5-FU-D33- #1, 5-FU-D214- #1, 5-FU-D67- #2, 5-FU-D171- #2, 5-FU-D50- #3, 5-FU-D77- #3 and 5-FU-D202- #3) or PDX dissociated cells (PDX_95, PDX_39 or PDX_172, untreated and persister cells), approximately 3,000 cells were loaded on a Chromium Single Cell Controller Instrument (Chromium Single Cell 3′v3, 10× Genomics, Ref: PN-1000075) according to the manufacturer's instructions. Samples and libraries were prepared according to the manufacturer's instructions. Libraries were sequenced on a NovaSeq 6000 (Illumina) in PE 28-8-91 with a coverage of 50,000 reads/cell.
# Single-cell RNA-seq analysis. The scRNA-seq sequencing files were preprocessed using the cellRanger pipeline. For PDX samples, files were aligned against hg19 and mm10 genomes and only cells with a majority of human reads were retained for the analysis. For the MDA-MB-468 human cell line, sequences were aligned against the hg38 genome only. Cells with less than 3,000 […] for MDA-MB-468 or 2,500 for PDX or more than 8,000 detected genes, or more than 100,000 reads were filtered out, as well as cells with a percent of mitochondrial reads greater than 15% or a percentage of spike in greater than 5%. Normalization, dimensionality reduction and Louvain clustering was done using monocle3 (v0.2.2)^52 keeping the first 50 Principal Components (PC). Cell cycle was determined for each cell using Seurat (v3.1.5)^53. […] Differentially expressed genes were obtained by comparing raw gene expression values using edgeR GLM statistical model^54. […] For MDA-MB-468 samples, as the number of cells was high, a subset of 500 cells per cluster was subsampled from each cluster for the differential analysis and downstream steps. Intra-cluster correlation scores were calculated using Pearson's correlation score, with a random subsampling of n=500 cells per cluster.
# MDA-MB-468 cells = test: Lineage barcode frequencies and diversity under 5-FU with EZH2i; type: cell-based, human
# From the text: Lentivirus packaging and cell transduction. Lentivirus was produced by transfecting the barcode plasmids pRRL-CMV-GFP-BCv2Ascl and p8.9-QV and pVSVG into HEK293T cells as previously described^30. MDA-MB-468 cells from ATCC were infected at passage 11 with lentivirus produced from the barcode library (pRRL-CMV-GFP-BCv 2Ascl) which includes 18206 different barcodes of 20 bp of a random stretch, at a low multiplicity of infection (MOI 0.1) to minimize the number of cells marked by multiple barcodes. Three weeks after transduction, cells were sorted for GFP expression to select cells with barcode insertion, and used for drug treatment.
# Bulk lineage barcode library preparation and sequencing. Lineage barcodes are recovered by isolating genomic DNA from cells of interest (NucleoSpin Tissue, Mini kit for DNA from cells and tissue, Macherey Nagel, Ref: 740952.50). From the isolated genomic DNA, barcodes are amplified with three nested PCR steps as decribed in^30 (see Extended Table 1 for primer sequence). In short, after a first specific PCR for the common region of the lineage barcodes, the amplified material was prepared for sequencing by addition of the illumina sequencing adaptaters and indexing and purification. Sequencing was done in order to obtain 50 reads, on average, per barcoded cell.
# Single-cell lineage barcode extraction from 10× datasets. […] To avoid running scripts on all reads we: 1. used samtools to extract all unmapped reads from the 10× output bam file, 2. used awk to take reads with either a 3′ or 5′ 20 bp match to the constant flanking region of the barcode allowing one mismatch, 3. retained only reads with both a 10× cell barcode and 10× UMI. We then located the 20 bp match to one of the constant flanking regions allowing one mismatch (but filtered out reads where a mismatch was in the first or last base to ensure the barcode is at the expected position). We then further required a 4 bp exact match on the other side of the barcode, and then extracted the 20 bp viral barcode, read name, 10× cell barcode and 10× UMI.
# To assign one viral barcode to each 10× cell barcode, we determined a consensus viral barcode for each UMI. For each position in the barcode we returned the most frequently observed base and the proportion of reads supporting this consensus. Barcodes associated with a 10× CB-UMI pair were filtered if the proportion of reads supporting a position was ≤0.5 at ≥3 positions. […]
# Bulk barcode pre-processing. […] In brief, using R-3.4.0 (R Development Core Team (2019) http://www.R-project.org), raw reads were first filtered for perfect to the input index-and common-sequences using XCALIBR (https://github.com/NKI-GCF/xcalibr) and filtered against the barcode reference list. […]
compound,measurement,setting,value
CCCc1cc(C)[nH]c(=O)c1CNC(=O)c1cc(-c2ccc(N3CCN(C(C)C)CC3)nc2)cc2c1cnn2C(C)C [EZH2i-1],activation of persister genes with depletion of H3K27me3 upon 5-FU treatment,"[1]; 23/37 genes, no chemotherapy",62%
same,over-expression of persister genes independently of any H3K27me3 enrichment in untreated cells,"[1]; 78/131 genes, no chemotherapy",60%
same,"expression of candidate master TFs FOXQ1, FOSL1 and N 2RF2",[1]; EZH2i-1 treatment,re-expressed by EZH2i-1 treatment
same,Pearson correlation of expression fold-changes induced by EZH2i-1 with those induced by chemotherapy in persister cells,"[1]; early time points, D33 versus D0",0.71
same,Pearson correlation of expression fold-changes induced by EZH2i-1 with changes in resistant cells,[1]; resistant cells,0.31
same,diversity in lineage barcodes in CDH2+ persister populations,"MDA-MB-468 cells; R3 cluster, 5-FU with versus without EZH2i-1, p<10^-4",over 2 fold-increase
same,correlation scores between lineage frequencies in 5-FU and DMSO treated population,"MDA-MB-468 cells; co-treatment with 5-FU, bulk lineage barcodes",increased correlation scores

# — US20260266837A1, “Methods for Cancer Recurrence Detection and Treatment Thereof” (Institut Curie, priority 2022, published 2026)
